Assay [1] has as its target T1, MKNK1 (Homo sapiens, UniProt Q9BUB5, T385D).
T1 construct: GST (N); purchased Carna Biosciences 02-145; host or cells: insect cells (baculovirus expression system)
The assay can be described thus: MKNK1 kinase high ATP assay (TR-FRET). Type of assay: biochemical. Conditions: ATP final conc. 2 mM; 15 min pre-incubation; reaction time 30 min at 22°C. The protocol: MKNK1-inhibitory activity at high ATP of compounds of the present invention after their preincubation with MKNK1 was quantified employing the TR-FRET-based MKNK1 high ATP assay as described in the following paragraphs.
As substrate for the kinase reaction the biotinylated peptide biotin-Ahx-[…] (C-terminus in amide form) was used, which can be purchased e.g. from the company Biosyntan (Berlin-Buch, Germany).
For the assay 50 nL of a 100fold concentrated solution of the test compound in DMSO was pipetted into a black low volume 384well microtiter plate (Greiner Bio-One, Frickenhausen, Germany), 2 µL of a solution of MKNK1 in aqueous assay buffer [50 mM HEPES pH 7.5, 5 mM magnesium chloride, 1.0 mM dithiothreitol, 0.005% (v/v) Nonidet-P40 (Sigma)] was added and the mixture was incubated for 15 min at 22°C to allow pre-binding of the test compounds to the enzyme before the start of the kinase reaction. Then the kinase reaction was started by the addition of 3 µL of a solution of adenosine-tri-phosphate (ATP, 3.3 mM => final conc. in the 5 µL assay volume is 2 mM) and substrate (0.1 µM => final conc. in the 5 µL assay volume is 0.06 µM) in assay buffer and the resulting mixture was incubated for a reaction time of 30 min at 22°C. The concentration of MKNK1 was adjusted depending of the activity of the enzyme lot and was chosen appropriate to have the assay in the linear range, typical concentrations were in the range of 0.003 µg/mL. The reaction was stopped by the addition of 5 µL of a solution of TR-FRET detection reagents (5 nM streptavidine-XL665 [Cisbio Bioassays, Codolet, France] and 1 nM anti-ribosomal protein S6 (pSer236)-antibody from Invitrogen [# 44921G] and 1 nM LANCE EU-W1024 labeled ProteinG [Perkin-Elmer, product no. AD0071]) in an aqueous EDTA-solution (100 mM EDTA, 0.1 % (w/v) bovine serum albumin in 50 mM HEPES pH 7.5).
(§1) The resulting mixture was incubated for 1 h at 22°C to allow the formation of complex between the phosphorylated biotinylated peptide and the detection reagents. Subsequently the amount of phosphorylated substrate was evaluated by measurement of the resonance energy transfer from the Eu-chelate to the streptavidine-XL. Therefore, the fluorescence emissions at 620 nm and 665 nm after excitation at 350 nm were measured in a TR-FRET reader, e.g. a Rubystar (BMG Labtechnologies, Offenburg, Germany) or a Viewlux (Perkin-Elmer). The ratio of the emissions at 665 nm and at […] was taken as the measure for the amount of phosphorylated substrate. The data were normalised (enzyme reaction without inhibitor = 0 % inhibition, all other assay components but no enzyme = 100 % inhibition).
For orientation: Time-resolved FRET reads energy transfer from a long-lived donor to a nearby acceptor.

Assay [2] has as its target T1, MKNK1. The assay can be described thus: MKNK1 kinase assay (TR-FRET). Type of assay: biochemical. Conditions: ATP final conc. 10 µM; 15 min pre-incubation; reaction time 45 min at 22°C. As to the method:
MKNK1-inhibitory activity of compounds of the present invention was quantified employing the MKNK1 TR-FRET assay as described in the following paragraphs.
As substrate for the kinase reaction the biotinylated peptide biotin-Ahx-[…] (C-terminus in amide form) was used which can be purchased e.g. form the company Biosyntan (Berlin-Buch, Germany).
For the assay 50 nL of a 100fold concentrated solution of the test compound in DMSO was pipetted into a black low volume 384well microtiter plate (Greiner Bio-One, Frickenhausen, Germany), 2 µL of a solution of MKNK1 in aqueous assay buffer [50 mM HEPES pH 7.5, 5 mM magnesium chloride, 1.0 mM dithiothreitol, 0.005% (v/v) Nonidet-P40 (Sigma)] was added and the mixture was incubated for 15 min at 22°C to allow pre-binding of the test compounds to the enzyme before the start of the kinase reaction. Then the kinase reaction was started by the addition of 3 µL of a solution of adenosine-tri-phosphate (ATP, 16.7 µM => final conc. in the 5 µL assay volume is 10 µM) and substrate (0.1 µM => final conc. in the 5 µL assay volume is 0.06 µM) in assay buffer and the resulting mixture was incubated for a reaction time of 45 min at 22°C.
as §1, with “inhibition). […] Table 1: MKNK1 IC50s” for “inhibition).”

Where a name gives a salt, the structure may show the parent alone.

T1 sequence (Q9BUB5 1-424 isoform Q9BUB5-2 T344D): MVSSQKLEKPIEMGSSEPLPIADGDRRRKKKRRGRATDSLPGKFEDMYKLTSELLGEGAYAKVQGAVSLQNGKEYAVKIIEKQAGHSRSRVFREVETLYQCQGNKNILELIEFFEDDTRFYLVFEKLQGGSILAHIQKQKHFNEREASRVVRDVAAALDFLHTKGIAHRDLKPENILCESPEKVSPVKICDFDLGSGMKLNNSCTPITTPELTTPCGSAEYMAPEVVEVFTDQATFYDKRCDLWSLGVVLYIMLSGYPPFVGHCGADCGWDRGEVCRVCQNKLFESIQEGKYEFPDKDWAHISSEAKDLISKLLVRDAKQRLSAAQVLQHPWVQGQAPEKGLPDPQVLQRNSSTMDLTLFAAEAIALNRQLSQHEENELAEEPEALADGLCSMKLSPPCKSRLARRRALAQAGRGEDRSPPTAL

Regarding `NCCCCOc1ccc2ncc(-c3cc4ccccc4o3)n2n1` [Example 8, 4-{[3-(1-Benzofuran-2-yl)imidazo[1,2-b]pyridazin-6-yl]oxy}butan-1-amine], the results for the IC50 against MKNK1 [1] and against MKNK1 [2] were 0.017 µM and 0.007 µM, respectively.
The like results for `COc1ccc2oc(-c3cnc4ccc(OCCCN)nn34)cc2c1` [Example 9, 3-{[3-(5-Methoxy-1-benzofuran-2-yl)imidazo[1,2-b]pyridazin-6-yl]oxy}propan-1-amine] were, in that order, 0.022 µM and 0.007 µM.
Turning to `NCCCOc1ccc2ncc(-c3cc4ccccc4o3)n2n1` [Example 11, 3-{[3-(1-Benzofuran-2-yl)imidazo[1,2-b]pyridazin-6-yl]oxy}propan-1-amine], the IC50 (usually the concentration at which inhibition is half-maximal) at MKNK1 [1] was found to be 0.024 µM; on MKNK1 [2], 0.008 µM.
For `NCCOc1ccc2ncc(-c3cc4ccccc4o3)n2n1` [Example 12, 2-{[3-(1-Benzofuran-2-yl)imidazo[1,2-b]pyridazin-6-yl]oxy}ethanamine], in that order: 0.027 µM and 0.01 µM.
For `CC(C)(N)CCOc1ccc2ncc(-c3cc4ccccc4o3)n2n1` [Example 14, 4-{[3-(1-Benzofuran-2-yl)imidazo[1,2-b]pyridazin-6-yl]oxy}-2-methylbutan-2-amine], in that order: 0.039 µM and 0.02 µM.
The like results for `C[C@H](CN)Oc1ccc2ncc(-c3cc4cc(Cl)ccc4o3)n2n1` [Example 15, (2R)-2-{[3-(5-Chloro-1-benzofuran-2-yl)imidazo[1,2-b]pyridazin-6-yl]oxy}-propan-1-amine] were, in that order, 0.197 µM and 0.036 µM.
`NC[C@H](Oc1ccc2ncc(-c3cc4ccccc4o3)n2n1)c1ccccc1` [Example 16, (2R)-2-{[3-(1-Benzofuran-2-yl)imidazo[1,2-b]pyridazin-6-yl]oxy}-2-phenylethan-amine]: the IC50 on MKNK1 [1] came out at 0.049 µM; against MKNK1 [2], 0.026 µM.
For `N[C@H](COc1ccc2ncc(-c3cc4ccccc4o3)n2n1)c1ccccc1` [Example 17, (1S)-2-{[3-(1-Benzofuran-2-yl)imidazo[1,2-b]pyridazin-6-yl]oxy}-1-phenylethan-amine], in that order: 0.01 µM and 0.006 µM.
`N[C@@H](COc1ccc2ncc(-c3cc4ccccc4o3)n2n1)c1ccccc1` [Example 18, (1R)-2-{[3-(1-Benzofuran-2-yl)imidazo[1,2-b]pyridazin-6-yl]oxy}-1-phenyl-ethanamine]: the IC50 on MKNK1 [1] came to 0.033 µM; against MKNK1 [2], 0.022 µM.
The like results for `N[C@H](COc1ccc2ncc(-c3cc4cc(Cl)ccc4o3)n2n1)c1ccccc1` [Example 19, (1S)-2-{[3-(5-Chloro-1-benzofuran-2-yl)imidazo[1,2-b]pyridazin-6-yl]oxy}-1-phenylethanamine] were, in that order, 0.111 µM and 0.025 µM.
The like results for `NC[C@H]1C[C@H](Oc2ccc3ncc(-c4cc5ccccc5o4)n3n2)C1` [Example 20, 1-(trans-3-{[3-(1-Benzofuran-2-yl)imidazo[1,2-b]pyridazin-6-yl]oxy}cyclobutyl)-methanamine] were, in that order, 0.006 µM and 0.004 µM.
For `N[C@H]1C[C@H](COc2ccc3ncc(-c4cc5ccccc5o4)n3n2)C1` [Example 22, trans-3-({[3-(1-Benzofuran-2-yl)imidazo[1,2-b]pyridazin-6-yl]oxy}methyl)cyclobutanamine], in that order: 0.017 µM and 0.006 µM.
Regarding `N[C@H]1CCC[C@@H]1Oc1ccc2ncc(-c3cc4ccccc4o3)n2n1` [Example 24, (1S,2S)-2-{[3-(1-Benzofuran-2-yl)imidazo[1,2-b]pyridazin-6-yl]oxy}cyclopentan-amine], the IC50 came to 0.019 µM against MKNK1 [1] and 0.01 µM at MKNK1 [2].
With `N[C@H]1CCC[C@H]1Oc1ccc2ncc(-c3cc4ccccc4o3)n2n1` [Example 25, (1S,2R)-2-{[3-(1-Benzofuran-2-yl)imidazo[1,2-b]pyridazin-6-yl]oxy}cyclopentan-amine salt with formic acid], the IC50 against MKNK1 [1] was found to be 0.022 µM; against MKNK1 [2], 0.007 µM.
For `NCC(Cc1ccccc1)Oc1ccc2ncc(-c3cc4ccccc4o3)n2n1` (stereo not shown) [Example 26, 2-{[3-(1-Benzofuran-2-yl)imidazo[1,2-b]pyridazin-6-yl]oxy}-3-phenylpropan-1-amine salt with formic acid], in that order: 0.025 µM and 0.015 µM.
`NCC(Oc1ccc2ncc(-c3cc4ccccc4o3)n2n1)C1CC1` (stereo not shown) [Example 30, 2-{[3-(1-Benzofuran-2-yl)imidazo[1,2-b]pyridazin-6-yl]oxy}-2-cyclopropylethan-amine]: the figures for the IC50 at MKNK1 [1] and on MKNK1 [2] were 0.075 µM and 0.041 µM, respectively.
The like results for `NCC(CN)Oc1ccc2ncc(-c3cc4ccccc4o3)n2n1` [Example 34, 2-{[3-(1-Benzofuran-2-yl)imidazo[1,2-b]pyridazin-6-yl]oxy}propane-1,3-diamine] were, in that order, 0.092 µM and 0.039 µM.
For `NCC(Oc1ccc2ncc(-c3cc4ccccc4o3)n2n1)C1CCOC1` (stereo not shown) [Example 35, 2-{[3-(1-Benzofuran-2-yl)imidazo[1,2-b]pyridazin-6-yl]oxy}-2-(tetrahydrofuran-3-yl)ethanamine], in that order: 0.052 µM and 0.032 µM.
In the case of `N[C@H]1C[C@H](Oc2ccc3ncc(-c4cc5c(F)cccc5o4)n3n2)C1` [Example 36, trans-3-{[3-(4-Fluoro-1-benzofuran-2-yl)imidazo[1,2-b]pyridazin-6-yl]oxy}-cyclobutanamine], the IC50 stood at 0.002 µM at MKNK1 [1] and 0.001 µM against MKNK1 [2].
For `N[C@H]1C[C@H](Oc2ccc3ncc(-c4cc5cc(Cl)ccc5o4)n3n2)C1` [Example 37, trans-3-{[3-(5-Chloro-1-benzofuran-2-yl)imidazo[1,2-b]pyridazin-6-yl]oxy}-cyclobutanamine], in that order: 0.005 µM and 0.004 µM.
`COc1ccc2oc(-c3cnc4ccc(O[C@H]5C[C@H](N)C5)nn34)cc2c1` [Example 38, trans-3-{[3-(5-Methoxy-1-benzofuran-2-yl)imidazo[1,2-b]pyridazin-6-yl]oxy}-cyclobutanamine]: the IC50 at MKNK1 [1] came to 0.006 µM; at MKNK1 [2], 0.003 µM.
For `N[C@H]1C[C@H](Oc2ccc3ncc(-c4cc5cc(F)ccc5o4)n3n2)C1` [Example 39, trans-3-{[3-(5-Fluoro-1-benzofuran-2-yl)imidazo[1,2-b]pyridazin-6-yl]oxy}-cyclobutanamine], in that order: 0.006 µM and 0.003 µM.
Take `CC(CN)COc1ccc2ncc(-c3cc4ccccc4o3)n2n1` (stereo not shown) [Example 40, 3-{[3-(1-Benzofuran-2-yl)imidazo[1,2-b]pyridazin-6-yl]oxy}-2-methylpropan-1-amine]: the IC50 at MKNK1 [1] was found to be 0.018 µM; against MKNK1 [2] it was 0.009 µM.
